Experimental data taken from ChEMBL document CHEMBL1921670, “Discovery and optimization of indole and 7-azaindoles as Rho kinase (ROCK) inhibitors (part-II)” (Bioorg Med Chem Lett, 2011).
Values after ≈ are worked out from the molar mass of the structure shown. Active and inactive are the calls of the source. No cut-off for these calls is given here.

Assays:
[1] = molecular target: Rho-associated protein kinase 2 (Homo sapiens, UniProt O75116); experiment: Inhibition of ROCK2
[2] = molecular target: Rho-associated protein kinase 1 (Homo sapiens, UniProt Q13464); experiment: Inhibition of ROCK1
[3] = Inhibition of PKA
[4] = molecular target: Serine/threonine-protein kinase MRCK alpha (Homo sapiens) (UniProt Q5VT25); experiment: Inhibition of MRCKalpha at 5 uM
[5] = Inhibition of p38 at 5 uM
[6] = molecular target: RAC-alpha serine/threonine-protein kinase (Homo sapiens) (UniProt P31749); experiment: Inhibition of AKT at 5 uM
[7] = molecular target: Mitogen-activated protein kinase 10 (Homo sapiens) (UniProt P53779); experiment: Inhibition of JNK3 at 5 uM
[8] = Half life in human liver microsomes; type: ADME, Microsome
CYP1A2 = molecular target: T1, CYP1A2 (Homo sapiens, UniProt P05177); experiment: Inhibition of CYP1A2 at 10 uM; type: ADME
T1 sequence (P05177 whole entry): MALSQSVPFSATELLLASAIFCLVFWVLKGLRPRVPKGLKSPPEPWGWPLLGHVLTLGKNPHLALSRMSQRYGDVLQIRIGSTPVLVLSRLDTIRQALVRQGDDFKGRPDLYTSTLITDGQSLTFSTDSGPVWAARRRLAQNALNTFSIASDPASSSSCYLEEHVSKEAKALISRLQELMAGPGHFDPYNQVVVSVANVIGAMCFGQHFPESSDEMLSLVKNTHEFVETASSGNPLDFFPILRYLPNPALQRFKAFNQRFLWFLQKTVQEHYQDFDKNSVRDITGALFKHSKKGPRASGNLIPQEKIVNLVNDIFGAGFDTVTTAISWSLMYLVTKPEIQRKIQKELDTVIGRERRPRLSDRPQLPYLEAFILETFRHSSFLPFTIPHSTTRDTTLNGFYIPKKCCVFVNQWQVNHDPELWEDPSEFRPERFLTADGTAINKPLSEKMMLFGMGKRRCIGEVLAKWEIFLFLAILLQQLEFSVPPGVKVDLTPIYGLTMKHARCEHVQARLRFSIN

CYP2C9 = CYP2C9 (Homo sapiens, UniProt P11712); experiment: Inhibition of CYP2C9 at 10 uM; type: ADME
CYP2D6 = CYP2D6 (Homo sapiens, UniProt P10635); experiment: Inhibition of CYP2D6 at 10 uM; type: ADME
CYP3A4 = CYP3A4 (Homo sapiens, UniProt P08684); experiment: Inhibition of CYP3A4 at 10 uM; type: ADME
[9] = Clearance in rat at 1 mg/kg, iv or 2 mg/kg, po; type: ADME, organism-based; details: in vivo
[10] = Volume of distribution at steady state in rat at 1 mg/kg, iv or 2 mg/kg, po; type: ADME, organism-based; details: in vivo, read-out: Vdss
[11] = Half life in rat at 1 mg/kg, iv or 2 mg/kg, po; type: ADME, organism-based; details: in vivo
[12] = AUC in rat at 2 mg/kg, po; type: ADME, organism-based; parameters: dose 2 mg/kg, route oral; details: plasma
[13] = Cmax in rat at 2 mg/kg, po; type: ADME, organism-based; parameters: dose 2 mg/kg, route oral; details: in vivo
[14] = Oral bioavailability in rat at 2 mg/kg; type: ADME, organism-based; details: in vivo
[15] = AUC in rat at 1 mg/kg, iv; type: ADME, organism-based; parameters: dose 1 mg/kg, route intravenous; details: plasma
[16] = Aqueous solubility of compound at pH 5.5; type: physicochemical; details: buffer
[17] = Aqueous solubility of compound at pH 7.4; type: physicochemical; details: buffer
[18] = Inhibition of myosin light chain bisphosphorylation by cell-based assay

Sequence of Rho-associated protein kinase 2 (O75116 whole entry): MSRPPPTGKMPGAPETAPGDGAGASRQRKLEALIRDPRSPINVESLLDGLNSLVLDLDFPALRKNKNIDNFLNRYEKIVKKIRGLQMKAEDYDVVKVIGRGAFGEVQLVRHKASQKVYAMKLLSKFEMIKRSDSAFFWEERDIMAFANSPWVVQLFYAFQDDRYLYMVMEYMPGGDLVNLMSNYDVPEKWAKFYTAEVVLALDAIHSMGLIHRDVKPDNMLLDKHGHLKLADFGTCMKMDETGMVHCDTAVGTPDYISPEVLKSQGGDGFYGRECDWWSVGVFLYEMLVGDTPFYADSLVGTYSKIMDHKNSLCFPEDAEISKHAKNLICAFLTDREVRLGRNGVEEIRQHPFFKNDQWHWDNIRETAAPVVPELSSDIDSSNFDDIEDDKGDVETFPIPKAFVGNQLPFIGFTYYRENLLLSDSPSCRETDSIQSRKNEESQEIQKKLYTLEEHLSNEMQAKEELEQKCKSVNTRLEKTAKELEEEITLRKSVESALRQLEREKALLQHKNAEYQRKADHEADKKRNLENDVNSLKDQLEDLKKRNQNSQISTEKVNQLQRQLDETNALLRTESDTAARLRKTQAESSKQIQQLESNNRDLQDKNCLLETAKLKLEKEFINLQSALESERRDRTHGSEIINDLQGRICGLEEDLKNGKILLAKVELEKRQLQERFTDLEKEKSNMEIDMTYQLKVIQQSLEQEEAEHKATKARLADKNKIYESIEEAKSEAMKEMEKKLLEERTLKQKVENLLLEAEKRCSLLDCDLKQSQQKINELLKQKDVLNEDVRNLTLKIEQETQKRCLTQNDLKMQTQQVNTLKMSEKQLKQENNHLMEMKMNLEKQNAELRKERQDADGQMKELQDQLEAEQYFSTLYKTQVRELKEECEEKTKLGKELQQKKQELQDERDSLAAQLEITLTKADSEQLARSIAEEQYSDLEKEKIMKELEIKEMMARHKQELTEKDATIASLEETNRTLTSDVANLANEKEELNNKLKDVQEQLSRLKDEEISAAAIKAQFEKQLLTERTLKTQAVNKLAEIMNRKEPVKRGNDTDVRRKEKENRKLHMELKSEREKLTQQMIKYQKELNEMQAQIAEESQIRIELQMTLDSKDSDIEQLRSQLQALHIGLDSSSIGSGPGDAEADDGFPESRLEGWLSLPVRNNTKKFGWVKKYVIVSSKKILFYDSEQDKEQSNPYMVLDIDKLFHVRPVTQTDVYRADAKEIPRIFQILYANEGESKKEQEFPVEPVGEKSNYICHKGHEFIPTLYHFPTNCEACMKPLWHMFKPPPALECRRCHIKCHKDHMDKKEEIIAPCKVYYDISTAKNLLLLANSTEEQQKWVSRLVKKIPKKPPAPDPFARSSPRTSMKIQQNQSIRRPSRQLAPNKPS
Sequence of CYP3A4 (P08684 whole entry): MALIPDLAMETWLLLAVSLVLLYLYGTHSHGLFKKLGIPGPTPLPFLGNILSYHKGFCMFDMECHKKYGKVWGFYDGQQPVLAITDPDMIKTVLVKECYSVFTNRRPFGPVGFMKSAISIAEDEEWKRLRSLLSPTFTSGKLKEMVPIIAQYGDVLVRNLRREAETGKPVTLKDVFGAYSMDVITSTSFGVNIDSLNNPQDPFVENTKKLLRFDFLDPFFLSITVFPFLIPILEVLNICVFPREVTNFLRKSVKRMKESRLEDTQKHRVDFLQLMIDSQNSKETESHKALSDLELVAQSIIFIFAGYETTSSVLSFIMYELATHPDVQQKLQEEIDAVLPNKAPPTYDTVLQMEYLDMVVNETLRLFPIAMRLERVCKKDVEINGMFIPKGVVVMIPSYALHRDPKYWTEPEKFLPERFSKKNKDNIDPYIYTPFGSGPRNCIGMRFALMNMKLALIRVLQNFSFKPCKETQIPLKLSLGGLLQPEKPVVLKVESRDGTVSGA
Sequence of CYP2C9 (P11712 whole entry): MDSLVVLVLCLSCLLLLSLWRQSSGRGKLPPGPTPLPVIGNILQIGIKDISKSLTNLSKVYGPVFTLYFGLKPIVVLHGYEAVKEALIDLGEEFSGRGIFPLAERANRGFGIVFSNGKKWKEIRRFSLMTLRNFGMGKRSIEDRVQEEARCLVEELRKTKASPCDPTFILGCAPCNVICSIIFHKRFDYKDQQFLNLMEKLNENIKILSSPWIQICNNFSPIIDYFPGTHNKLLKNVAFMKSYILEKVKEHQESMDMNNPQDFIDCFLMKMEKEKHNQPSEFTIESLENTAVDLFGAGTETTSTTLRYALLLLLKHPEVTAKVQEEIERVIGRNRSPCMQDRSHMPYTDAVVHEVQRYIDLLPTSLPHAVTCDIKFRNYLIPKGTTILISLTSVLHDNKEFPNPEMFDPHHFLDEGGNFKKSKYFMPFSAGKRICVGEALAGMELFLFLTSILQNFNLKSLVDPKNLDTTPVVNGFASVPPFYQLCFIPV
Sequence of CYP2D6 (P10635 whole entry): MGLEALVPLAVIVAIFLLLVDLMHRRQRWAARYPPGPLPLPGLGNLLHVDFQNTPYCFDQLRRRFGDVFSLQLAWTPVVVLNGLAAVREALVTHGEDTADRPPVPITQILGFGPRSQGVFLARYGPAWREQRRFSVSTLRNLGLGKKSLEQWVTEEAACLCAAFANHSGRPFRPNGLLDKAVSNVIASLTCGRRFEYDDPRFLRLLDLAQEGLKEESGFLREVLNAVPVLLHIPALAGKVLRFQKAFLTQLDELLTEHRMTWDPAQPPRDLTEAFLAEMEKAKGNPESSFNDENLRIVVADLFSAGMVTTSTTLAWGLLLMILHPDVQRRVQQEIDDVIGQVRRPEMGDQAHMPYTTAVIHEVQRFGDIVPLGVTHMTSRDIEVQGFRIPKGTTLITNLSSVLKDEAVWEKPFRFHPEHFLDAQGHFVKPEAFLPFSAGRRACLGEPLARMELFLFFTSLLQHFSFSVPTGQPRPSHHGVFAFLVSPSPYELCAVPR
Sequence of Rho-associated protein kinase 1 (Q13464 whole entry): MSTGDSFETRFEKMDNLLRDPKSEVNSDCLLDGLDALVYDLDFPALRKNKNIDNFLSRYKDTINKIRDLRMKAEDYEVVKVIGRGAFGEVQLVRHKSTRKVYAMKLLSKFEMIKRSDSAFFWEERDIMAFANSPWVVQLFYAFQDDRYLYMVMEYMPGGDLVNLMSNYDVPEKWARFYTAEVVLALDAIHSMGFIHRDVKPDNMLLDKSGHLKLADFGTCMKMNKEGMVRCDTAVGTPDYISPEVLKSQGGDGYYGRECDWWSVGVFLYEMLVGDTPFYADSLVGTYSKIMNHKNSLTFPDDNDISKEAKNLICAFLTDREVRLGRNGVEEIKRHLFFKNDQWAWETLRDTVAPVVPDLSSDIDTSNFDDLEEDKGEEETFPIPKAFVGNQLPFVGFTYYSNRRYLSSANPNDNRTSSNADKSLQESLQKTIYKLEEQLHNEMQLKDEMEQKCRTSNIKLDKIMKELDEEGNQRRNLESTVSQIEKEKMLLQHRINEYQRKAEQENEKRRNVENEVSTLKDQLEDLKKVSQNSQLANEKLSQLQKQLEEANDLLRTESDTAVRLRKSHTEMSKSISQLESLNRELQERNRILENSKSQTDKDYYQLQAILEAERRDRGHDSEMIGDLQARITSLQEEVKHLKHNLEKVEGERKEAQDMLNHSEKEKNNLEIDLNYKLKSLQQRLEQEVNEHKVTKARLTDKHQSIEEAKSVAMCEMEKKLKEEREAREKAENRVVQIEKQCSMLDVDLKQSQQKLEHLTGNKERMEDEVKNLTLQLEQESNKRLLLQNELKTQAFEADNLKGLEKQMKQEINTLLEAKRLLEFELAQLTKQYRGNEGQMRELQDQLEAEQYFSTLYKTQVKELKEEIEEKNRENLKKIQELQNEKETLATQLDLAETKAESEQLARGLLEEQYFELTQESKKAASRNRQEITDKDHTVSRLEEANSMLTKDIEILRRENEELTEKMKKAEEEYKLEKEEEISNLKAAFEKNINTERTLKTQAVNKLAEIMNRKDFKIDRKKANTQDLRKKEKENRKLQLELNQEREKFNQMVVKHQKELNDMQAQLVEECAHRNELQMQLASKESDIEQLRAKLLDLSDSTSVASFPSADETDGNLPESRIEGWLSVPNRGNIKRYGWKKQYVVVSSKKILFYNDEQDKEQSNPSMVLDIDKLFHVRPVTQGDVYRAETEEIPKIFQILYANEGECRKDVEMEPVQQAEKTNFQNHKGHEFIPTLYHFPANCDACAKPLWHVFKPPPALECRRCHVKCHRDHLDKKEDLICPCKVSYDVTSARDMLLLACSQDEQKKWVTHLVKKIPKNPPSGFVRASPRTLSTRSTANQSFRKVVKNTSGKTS
Sequence of RAC-alpha serine/threonine-protein kinase (Homo sapiens) (P31749 whole entry): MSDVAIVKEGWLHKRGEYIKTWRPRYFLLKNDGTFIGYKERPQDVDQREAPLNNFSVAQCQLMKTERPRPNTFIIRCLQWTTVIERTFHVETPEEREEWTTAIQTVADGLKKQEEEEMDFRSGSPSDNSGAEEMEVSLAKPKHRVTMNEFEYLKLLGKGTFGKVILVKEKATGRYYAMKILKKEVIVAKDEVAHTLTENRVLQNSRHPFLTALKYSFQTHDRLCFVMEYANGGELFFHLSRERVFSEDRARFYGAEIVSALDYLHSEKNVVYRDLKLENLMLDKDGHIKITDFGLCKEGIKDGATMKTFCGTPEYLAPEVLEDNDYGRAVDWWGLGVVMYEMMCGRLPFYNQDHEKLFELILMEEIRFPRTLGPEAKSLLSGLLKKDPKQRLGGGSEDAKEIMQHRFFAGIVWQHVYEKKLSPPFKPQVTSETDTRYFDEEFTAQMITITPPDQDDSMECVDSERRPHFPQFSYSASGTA

COc1cccc(CNC(=O)c2cc3ccc(-c4cn[nH]c4)nc3n2CCCO)c1
IC50 [1]: 24 nM
IC50 [2]: 88 nM
IC50 [3]: 5800 nM
inhibition [4]: inactive
inhibition [5]: inactive
inhibition [6]: inactive
inhibition [7]: inactive

COc1cccc(CN(C(=O)c2cc3ccc(-c4cn[nH]c4)nc3[nH]2)C2CC2)c1
IC50 [1]: 8 nM
IC50 [2]: 33 nM
IC50 [3]: 1700 nM
half-life [8]: 27 min
inhibition at 10 µM (CYP1A2): 16%
inhibition at 10 µM (CYP2C9): 52%
inhibition at 10 µM (CYP2D6): 30%
inhibition at 10 µM (CYP3A4): 40%
clearance [9]: 21 mL/min/kg
Vd [10]: 1.2 L/kg
half-life [11]: 54 min
AUC [12]: 1 µM·h
Cmax [13]: 255 nM
bioavailability [14]: 22%
AUC [15]: 2.2 µM·h

COc1cccc(CNC(=O)c2cc3ccc(-c4cn[nH]c4)nc3n2CCN(C)C)c1
IC50 [1]: 43 nM
IC50 [2]: 243 nM
IC50 [3]: 3670 nM
half-life [8]: 17 min
inhibition at 10 µM (CYP1A2): 26%
inhibition at 10 µM (CYP2C9): 46%
inhibition at 10 µM (CYP2D6): 55%
inhibition at 10 µM (CYP3A4): 65%
inhibition [4]: inactive
inhibition [5]: inactive
inhibition [6]: inactive
inhibition [7]: inactive

COc1cccc(CNC(=O)c2cc3ccc(-c4cn[nH]c4)cc3[nH]2)c1
IC50 [3]: 6700 nM
solubility [16]: ≤ 0.01 µM
solubility [17]: ≤ 0.01 µM

COc1cccc(CNC(=O)c2c[nH]c3cc(-c4cn[nH]c4)ccc23)c1
IC50 [3]: 510 nM
solubility [16]: ≤ 0.01 µM
solubility [17]: ≤ 0.01 µM

COc1cccc(CNC(=O)c2cc3ccc(-c4cn[nH]c4)nc3n2C)c1
IC50 [1]: < 1 nM
IC50 [2]: 2 nM
IC50 [3]: 150 nM
IC50 [18]: 25 nM
half-life [8]: 68 min
inhibition at 10 µM (CYP1A2): 1%
inhibition at 10 µM (CYP2C9): 76%
inhibition at 10 µM (CYP2D6): 48%
inhibition at 10 µM (CYP3A4): 40%
clearance [9]: 4 mL/min/kg
Vd [10]: 0.5 L/kg
half-life [11]: 108 min
AUC [12]: 7.9 µM·h
Cmax [13]: 1190 nM
bioavailability [14]: 35%
AUC [15]: 11.5 µM·h

COc1cccc(CNC(=O)c2cn(CCN(C)C)c3cc(-c4cn[nH]c4)ccc23)c1
IC50 [1]: < 1 nM
IC50 [2]: 5 nM
IC50 [3]: 7000 nM
IC50 [18]: 23 nM
half-life [8]: 20 min
inhibition at 10 µM (CYP1A2): -6%
inhibition at 10 µM (CYP2C9): 91%
inhibition at 10 µM (CYP2D6): 53%
inhibition at 10 µM (CYP3A4): 70%
clearance [9]: 42 mL/min/kg
Vd [10]: 3.2 L/kg
half-life [11]: 72 min
AUC [12]: 0.02 µM·h
bioavailability [14]: 1%
solubility [16]: ≥ 100 µM
solubility [17]: 77 µM (≈ 32100 ng/mL)
AUC [15]: 1 µM·h
